In patent US5721266A, “Substituted imidazolinyl-imidazolines as antagonists of SH-2 binding and therapeutic uses thereof” (Warner-Lambert Company, priority 1994, dated 1998):
Read-outs that look alike come from different tables or passages of the source.

Legend:
[1] = target: T1, [35S]abl SH-2 / activated EGF receptor (Homo sapiens, UniProt P00519); experiment: in vitro inhibition of [35S]abl SH-2 interactions with activated EGF receptor; assay type: binding
T1 construct: containing the SH-2 domain of abl; made in house; host or cells: abl SH-2 fusion: bacteria, labelled in vivo with 35S; EGFR partner: EGF-treated 3T3 cells transfected with human EGFR, immunoprecipitated
T1 sequence (P00519 127-217 limits assumed): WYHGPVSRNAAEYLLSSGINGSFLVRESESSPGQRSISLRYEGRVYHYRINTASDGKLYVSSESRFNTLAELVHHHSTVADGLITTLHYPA
Method: The ability of some of the preferred compounds of the present invention to inhibit SH-2 interactions with activated tyrosine kinase receptors was measured using an in vitro biological assay. The test assesses the ability of a test compound to inhibit the interaction of [^35 S]abl SH-2 with activated EGF receptors, or with other receptor tyrosine kinases.
A bacterial glutathione-S-transferase fusion protein, containing the SH-2 domain of abl, is labelled in vivo with ^35 S. Phosphorylated EGFR is purified from EGF-treated 3T3 cells transfected with the human EGFR by precipitation with anti-EGFR antisera. The resulting immune complex is bound to protein A--Sepharose beads. Binding of the ^35 S labelled abl fusion protein (77 nM) to the purified EGFR beads complex (approximately 1 μg of receptor/assay) is allowed to proceed to equilibrium (30 minutes) in a total volume of 0.4 mL, in the presence of the test compounds. Bound ^35 S fusion protein is separated from free by filtration through 0.65 μ DUPP filters, and radioactivity is determined by scintillation counting.
Results of the binding study are expressed in Table 1 as IC50 values, i.e., the concentration of test compound required to inhibit [^35 S]abl SH-2 interactions with the activated EGF receptor.

[2] = tested on: Rat Aortic Smooth Muscle Cells (RASMC); experiment: [3H]Thymidine Incorporation Assay, smooth muscle cell proliferation stimulated by PDGF; assay type: cell-based; settings: 22 hours
Method: (§1) SH-2 tyrosine kinase inhibitors may block the signal transduction pathways for platelet derived growth factor ("PDGF") and fibroblast growth factor ("FGF"), which have been implicated in the control of smooth muscle cell proliferation. The ability of some of the preferred compounds of the present invention to inhibit smooth muscle cell (SMC) proliferation stimulated by PDGF or serum was measured using the biological assay discussed below.
(§2) Rat Aortic Smooth Muscle Cells (RASMC) were plated into a 24-well plate (30,000 cells/well) in DMEM with 10% Fetal Bovine Serum (FBS). After 4 days cells reached confluence and were made quiescent by incubation in DMEM/F12 medium (Gibco) containing 0.2% FBS for another 2 days. Incubation with the growth factors, PDGF-BB and bFGF as well as FBS, and test compound was carried out in 0.5 mL/well serum-substituted medium (DMEM/F12+1% CPSR-2 from Sigma) for 22 hours. After 18 hours, 0.25 μCi/well [^3 H]thymidine was added. Four hours later the incubation was stopped by removing the radioactive media, washing the cells twice with 1 mL cold phosphate-buffered saline, and then washing 2 times with cold 5% trichloroacetic acid. The acid-insoluble fraction was lysed in 0.75 mL 0.25N NaOH and the radioactivity determined by liquid scintillation counting.
(§3) Smooth muscle cells were isolated from the thoracic aorta of rats (RASMC) and explanted according to the method of Ross, et al., Cell Biology 50:172-186 (1971). Cells were grown in Dulbecco's modified Eagle's medium (DMEM, Gibco) containing 10% fetal calf serum (FBS, Hyclone, Logan, Utah), 1% glutamine (Gibco), and 1% penicillin/streptomycin (Gibco). Cells were identified as smooth muscle cells by their "hill and valley" growth pattern and by fluorescent staining with a monoclonal antibody specific for SMC α-actin (Sigma). RASMC were used between passages 5 and 20 for all experiments. Test compounds were prepared in dimethylsulfoxide (DMSO) in order to achieve consistency in the vehicle and to ensure compound solubility. Appropriate DMSO controls were simultaneously evaluated with the test compounds.
(§4) The results of the cellular proliferation assay are expressed in Table 2 as IC50 values, i.e., the concentration of test compound required to inhibit [^3 H]thymidine incorporation into smooth muscle cells.

[3] = tested on: Rat Aortic Smooth Muscle Cells (RASMC); experiment: [3H]Thymidine Incorporation Assay, smooth muscle cell proliferation stimulated by serum; assay type: cell-based; settings: 22 hours
Method: as §1, §2, §3, §4

[4] = tested on: SWISS 3T3; experiment: inhibition of cell growth, SWISS 3T3; assay type: cell-based; settings: mouse fibroblast
[5] = tested on: NIH 2.2; experiment: inhibition of cell growth, NIH 2.2; assay type: cell-based; settings: mouse fibroblast, no EGF receptor
[6] = tested on: HCT-8; experiment: inhibition of growth of tumor cells, HCT-8; assay type: cell-based; settings: human colon carcinoma, 18,000 EGF receptors/cell
[7] = tested on: K562 cell line; experiment: proliferation of K562 cell line (FIG. 3); assay type: cell-based, human; settings: FIG. 3, wide range of concentrations
Method: (§5) In one screen, K562 human erythroleukemic cells were seeded at 6×10^4 cells/mL in RPMI 1640 medium containing 10% fetal bovine serum. These cells score positively for the Philadelphia chromosome, and are known to be transformed by the bcr-abl oncogene. At the time of seeding, test compound, or vehicle (DMSO), were added. Cells were counted 4 days after seeding using a hemocytometer.
(§6) In this example, an experiment was conducted to determine the inhibition of the growth of tumor cells from the K562 cell line upon exposure to Test Compound A specified in Example 3. The screen was conducted as described in Example 3.

[8] = tested on: NIH EGF-R; experiment: inhibition of cell growth, NIH EGF-R; assay type: cell-based; settings: mouse fibroblast, high expression of EGF receptor
[9] = tested on: A431; experiment: inhibition of growth of tumor cells, A431; assay type: cell-based; settings: A-431, human epidermoid carcinoma, overexpresses EGF receptor
[10] = tested on: MDA-231; experiment: inhibition of growth of tumor cells, MDA-231; assay type: cell-based; settings: Homo sapiens, MDA-MB-231, breast adenocarcinoma, moderate EGFR and erbB2
[11] = tested on: K562 cell line; experiment: viability of the K562 cell line (FIGS. 1 and 2); assay type: cell-based, human
Method: as §5, §6

[12] = tested on: MOLT-4; experiment: inhibition of growth of tumor cells, MOLT-4; assay type: cell-based; settings: human acute lymphoblastic leukemia, no bcr-abl
[13] = tested on: KG-1A; experiment: inhibition of growth of tumor cells, KG-1A; assay type: cell-based; settings: human acute myelogenous leukemia, no bcr-abl
[14] = tested on: MDA-468; experiment: inhibition of growth of tumor cells, MDA-468; assay type: cell-based; settings: estrogen independent breast adenocarcinoma, overexpresses EGF receptor
[15] = tested on: MCF-7; experiment: inhibition of growth of tumor cells, MCF-7; assay type: cell-based; settings: Homo sapiens, MCF7, estrogen dependent breast adenocarcinoma, 3000 EGF receptors/cell, some erbB2
[16] = tested on: K562; experiment: inhibition of growth of tumor cells, K562; assay type: cell-based; settings: 96 h, human chronic myelogenous leukemia, expresses p210 bcr-abl, 4 days
Method: as §5
The results of this experiment for a representative compound of the present invention appears in Table 3. Test Compound A is N,N'-decamethylenebis[2-amino-1-(2-imidazolin-2-yl)-2-imidazoline, dihydroiodide. The inhibition of growth of tumor cells is expressed as IC50 values; i.e., the concentration of test compound required to inhibit growth of the tumor cells by 50%.

[17] = tested on: KG-1A cell line; experiment: proliferation of KG-1A cell line (FIG. 3); assay type: cell-based, human; settings: FIG. 3, wide range of concentrations
Method: [The procedure below names another cell line; the source lists this cell line under the same test.] as §5, §6

[18] = tested on: L1210; experiment: inhibition of growth of tumor cells, L1210; assay type: cell-based; settings: mouse lymphocytic leukemia
[19] = [35S]abl SH-2 binding to activated EGF receptor, values in nM, read-out: IC50
[20] = [35S]abl SH-2 binding to activated EGF receptor, values in μM, read-out: IC50

Row | Compound | IC50 [1, 20] | IC50 [2] | IC50 [3] | further results
1 | C(CCCCCNC1=NCCN1C1=NCCN1)CCCCCNC1=NCCN1C1=NCCN1 | – | – | – | IC50 [1, 19]: 600 nM
2 | C1CCCCCC(NC2=NCCN2C2=NCCN2)CCCCC1 [drawing 11, 2-Cyclododecylamino-1-(2-imidazolin-2-yl)-2-imidazoline, monohydroiodide] | > 100000 nM | – | – | –
3 | C(CCNC1=NCCN1C1=NCCN1)CNC1=NCCN1C1=NCCN1 | 27000 nM | – | – | –
4 | C(CCNC1=NCCN1C1=NCCN1)CCNC1=NCCN1C1=NCCN1 | 259000 nM | 74 µM | > 100 µM | –
5 | C(CCCNC1=NCCN1C1=NCCN1)CCCNC1=NCCN1C1=NCCN1 | 38000 nM | – | – | –
6 | CCCCCCCNC1=NCCN1C1=NCCN1 [drawing 21, 2-(Heptylamino)-1-(2-imidazolin-2-yl)-2-imidazoline, monohydroiodide] | – | 3 µM | 6.4 µM | –
7 | C(CCCCCCNC1=NCCN1C1=NCCN1)CCCCCNC1=NCCN1C1=NCCN1 | – | – | – | IC50 [1]: 1200 nM
8 | CCCCCCCCCCCCCCCCCNC1=NCCN1C1=NCCN1 [2-(Heptadecylamino)-1-(2-imidazolin-2-yl)-2-imidazoline, monohydroiodide] | 1320 nM | < 1 µM | < 1 µM | –
9 | CCCCCCCNC1=NCCN1C1=NCCN1 [drawing 7, 2-(Heptylamino)-1-(2-imidazolin-2-yl)-2-imidazoline, monohydroiodide] | 10000 to 100000 nM | – | – | –
10 | C(CCCNC1=NCCN1C1=NCCN1)CCNC1=NCCN1C1=NCCN1 | – | – | – | IC50 [1, 19]: 100 nM
11 | CCCCCCCCCCCCCN=C1NCCN1C1=NCCN1 [(4,5,4',5'-Tetrahydro-3H,1'H-[1,2']biimidazolyl-2-ylidene)-tridecyl-amine] | 50000 nM | – | – | –
12 | C(CCCCCNC1=NCCN1C1=NCCN1)CCCCNC1=NCCN1C1=NCCN1 [Compound A] | – | 2.8 µM | 5 µM | IC50 [4]: > 50 µM; IC50 [5]: > 25 µM; IC50 [6]: 6.6 µM; growth rate of the K562 cell line [7]: substantially decreased; IC50 [8]: > 25 µM; IC50 [9]: 4.4 µM; IC50 [10]: 14 µM; viability of the K562 cell line ([11]; FIG. 1, increased concentrations): steadily decline; viability of the K562 cell line over time ([11]; FIG. 2, 3 μM versus 0.3 μM, compared against a control): substantially greater effect at decreasing the viability; IC50 [12]: 2.1 µM; IC50 [13]: 100 µM; IC50 [1, 19]: 50 nM; IC50 [14]: 0.9 µM; IC50 [15]: 7.8 µM; IC50 [16]: 0.6 µM; growth rate of the KG-1A cell line [17]: only slightly decreased; IC50 [18]: 1 µM
13 | C(CN=C1NCCN1C1=NCCN1)CN1CCN(CCCN=C2NCCN2C2=NCCN2)CC1 [2-(3-{4-[3-(4,5,4',5'-Tetrahydro-3H,1'H-[1,2']biimidazolyl-2-ylideneamino)-propyl]-piperazin-1-yl}-propylimino)-2,3,4,5,4',5'-hexahydro-1'H-[1,2']biimidazolyl] | 10000 nM | – | – | –
14 | C1CCCCCC(NC2=NCCN2C2=NCCN2)CCCCC1 [drawing 25, 2-Cyclododecylamino-1-(2-imidazolin-2-yl)-2-imidazoline, monohydroiodide] | – | < 1 µM | 1.1 µM | –
15 | C(CCCCNC1=NCCN1C1=NCCN1)CCCCNC1=NCCN1C1=NCCN1 | – | – | – | IC50 [1]: 1300 nM
16 | C(CCCCNC1=NCCN1C1=NCCN1)CCCNC1=NCCN1C1=NCCN1 | 33000 nM | 40 µM | 62 µM | –
